This passage reports IC50 results from patent publication US8034810B2, “Arylsulfonamido-substituted hydroxamic acid derivatives” (Novartis AG, priority 1999, dated 2011).

Counter-ions that a name gives are not always drawn.

The target of this test is T1, MMP1 (collagenase 1) (Homo sapiens, UniProt P03956).
T1 construct: made in house; host or cells: mouse C127 cells, vector pBPV-MMT, secreted into culture medium
T1 sequence (P03956 100-469): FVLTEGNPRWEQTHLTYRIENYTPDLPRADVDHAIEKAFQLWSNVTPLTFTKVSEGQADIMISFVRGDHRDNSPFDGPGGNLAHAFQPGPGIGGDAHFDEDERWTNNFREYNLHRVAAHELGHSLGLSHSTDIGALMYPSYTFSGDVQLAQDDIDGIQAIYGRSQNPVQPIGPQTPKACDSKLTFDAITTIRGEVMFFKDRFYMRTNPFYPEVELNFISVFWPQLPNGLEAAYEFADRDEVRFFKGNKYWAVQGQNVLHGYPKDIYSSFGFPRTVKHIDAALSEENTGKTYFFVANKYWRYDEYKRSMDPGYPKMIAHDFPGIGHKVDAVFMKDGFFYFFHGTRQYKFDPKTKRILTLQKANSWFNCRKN
Description: In vitro inhibition of MMP1 (collagenase 1), fluorogenic peptide substrate. Format: biochemical. Conditions: APMA-activated recombinant human collagenase; substrate 10 μM; 37° C. As for the experimental part: The inhibitory activities of compounds of formula I on MT1-MMP, MMP1 (collagenase 1) and MMP2 (gelatinase A) can be determined as follows:
Stock solutions of substrate (MCA-Pro-Leu-Gly-Leu-Dpa-Ala-Arg-NH2, Knight, C. G., Willenbrock, F., Murphy, G., A novel coumarin-labelled peptide for sensitive continuous assays of the matrix metalloproteinases, FEBS lett., 296, 263-266, (1992)), are prepared in 100% DMSO at a concentration 1.0 mM. Stock solutions of inhibitors are prepared in 100% DMSO. The inhibitor is diluted into the assays from a solution in 100% DMSO, and controls substitute an equal volume of DMSO so that the final DMSO concentration from inhibitor and substrate dilutions in all assays is 6.0%. Assays are performed in assay buffer (150 mM NaCl, 10 mM CaCl2, 50 mM Tris-Cl pH7.5, 0.05% Brij-35) containing 6.0% DMSO once the substrate and inhibitor are diluted into it. The substrate concentration used in the assays is 10 μM. The test is carried out at 37° C. The fluorescence changes are monitored using an excitation wavelength of 320 nm and an emission wavelength of […]. The reaction mixture is added in duplicate to appropriate wells of a 96 well microfluor plate. The reaction mixture is preincubated with the inhibitor for 30 min, the reaction is started by the addition of MMP enzyme and the fluorescence intensity is measured for 10 min. A time point that is on a linear part of the curve is chosen to determine the activity. The inhibition results are expressed as the inhibitor concentrations that produced 50% inhibition (IC50) of the activity in the control (non-inhibited) reaction. In this test, the compounds of the formula I and their pharmacologically acceptable salts have an inhibiting concentration IC50 [μmol/litre] of 0.0001 and 0.030, usually of 0.0002 to 0.010, for MMP2 and an inhibiting concentration IC50 [μmol/litre] of 0.0005 and 0.125, usually of 0.001 to 0.05, for MT1-MMP.
Plasmid: The cDNA for human collagenase is generated by PCR of cDNA derived from RNA isolated from human U937 cells (ATCC# CRL-2367). The primers, used to generate this cDNA, are […] and AAGGCGGCCGCA […], corresponding to nucleotides 58 to 1526 of the reported cDNA sequence, GenBank accession number X05231. The resulting cDNA fragment is subcloned into Not I site of a mammalian expression vector pBPV-MMT (Matthias, P. et al., J. Mol. Biol. 1986, 187(4):557-68).
C127 cells (ATCC-mouse mammary tumor cell line) are grown in Dulbecco's Modified Essential Medium supplemented with 10% heat inactivated fetal bovine serum and 1× antibiotic-antimycotic solution at 37° C. in a humidified CO2 incubator. Cells seeded at 8×10^5 in 100 mm dishes are transfected using a calcium phosphate precipitation method. 5 h prior to transfection, medium is replaced with fresh medium. Each dish is transfected with 15 μg of the expression vector. Cells are washed twice with PBS 16-18 h after transfection and are incubated in growth medium for an additional 48 h. Clones are then selected by incubation with the Neomycin related antibiotic G418 at a concentration of 400 μg/ml. Media from selected clones are analyzed for collagenase expression by an enzymatic assay. Expression and Purification: 16 liters of culture medium are concentrated to 1.6 liters and the enzyme is isolated by the procedures described by Wilhelm et al. (Proc. Natl. Acad. Sci. (USA). 1987; 84: 6725-29). The final product is further purified on a Superose G-75 (Pharmacia/LKB, Piscataway, N.J.) gel filtration column equilibrated in the assay buffer containing 0.15 M NaCl. Enzyme is pooled and stored in aliquots at −70° C. Recombinant procollagenase (43-45 kDa) is activated with 1 mM APMA (Aminophenylmercuric acetate, ICN Pharmaceuticals) for 2 h at 37° C., and the APMA is removed by extensive dialysis against the assay buffer containing 0.15M NaCl. The activated enzyme (˜36-kDa) is stored frozen at −70° C. until use.
By IC50 is commonly meant the concentration needed to halve the response being measured. Consider “2-[(Cyclopropylmethoxy-benzenesulfonyl)-(4-[1,2,4]triazol-1-yl-benzyl)-amino]-N-hydroxyacetamide-hydrochloride salt [Example 82b]”, for which the half-inhibitory concentration (IC50) is 0.965 µM.
With `COc1ccc(CN(CC(=O)NO)S(=O)(=O)c2ccc(OCCCCl)cc2)cc1` [Example 68, 2-{[4-(3-chloro-propoxy)-benzenesulfonyl]-(4-methoxy-benzyl)amino}-N-hydroxy-acetamide] the figure was 0.622 µM.
With `C#CCOc1ccc(S(=O)(=O)N(CC(=O)NO)Cc2ccc(OC)cc2)cc1` [Example 75, [(4-methoxy-benzyl)-[4-prop-2-ynyloxy-benzenesulfonyl]-amino]-N-hydroxy-acetamide] the figure was 0.069 µM; with `C=CCCOc1ccc(S(=O)(=O)N(CC(=O)NO)Cc2ccc(-n3cncn3)cc2)cc1` [Example 79, 2-[(4-but-3-enyloxy-benzenesulfonyl)-(4-[1,2,4]triazol-1-yl-benzyl)-amino]-N-hydroxy-acetamide-hydrochloride salt], 5.85 µM; with `C=CCCOc1ccc(S(=O)(=O)N(CC(=O)NO)Cc2ccc(-n3ccnc3)cc2)cc1` [Example 80, 2-[(4-But-3-enyloxy-benzenesulfonyl)-(4-imidazol-1-yl-benzyl)-amino]-N-hydroxy-acetamide-hydrochloride], 2.61 µM.
With `C=CCCOc1ccc(S(=O)(=O)N(CC(=O)NO)Cc2ccc(N3CCOCC3)cc2)cc1` [Example 81, 2-[(4-But-3-enyloxy-benzenesulfonyl)-(4-morpholin-4-yl-benzyl)-amino]-N-hydroxy-acetamide-hydrochloride] the figure was 4.29 µM.
`O=C(CN(Cc1ccc(-n2cncn2)cc1)S(=O)(=O)c1ccc(OCCC2CC2)cc1)NO` [Example 82a]: the IC50 is 4.21 µM.
Regarding `O=C(CN(Cc1ccc(-n2cncn2)cc1)S(=O)(=O)c1ccc(OCc2ccoc2)cc1)NO` [Example 82c], the IC50 came to 5.1 µM.
In the case of `C=CCCOc1ccc(S(=O)(=O)N(CC(=O)NO)Cc2cccc(F)n2)cc1` [Example 83a, 2-([4-But-3-enyloxy-benzenesulfonyl]-(6-fluoro-pyridine-2-yl)methyl-amino)-N-hydroxyacetamide], the IC50 came out at 3.69 µM.
With `C=CCCOc1ccc(S(=O)(=O)N(CC(=O)NO)Cc2ccc(N3CCCC3)cc2)cc1` [Example 84a, 2-[(4-But-3-enyloxy-benzenesulfonyl)-(4-(pyrrolidin-1-yl)-benzyl)-amino]-N-hydroxyacetamide-hydrochloride] the figure was 5.53 µM.
